Measured values reported in patent publication US10287258B2, “Certain (2S)-N-[(1S)-1-cyano-2-phenylethyl]-1,4-oxazepane-2-carboxamides as dipeptidyl peptidase 1 inhibitors” (AstraZeneca AB, priority 2014, dated 2019).

Assays:
[1] = Test B: In-vitro competitive aortic tissue binding assay; conditions: 100 μM compound, competition with [14C]4-amino-N-[(1S)-1-cyano-2-(4′-cyanobiphenyl-4-yl)ethyl]tetrahydro-2H-pyran-4-carboxamide, rat aortic homogenate
Experimental: Test B: In-Vitro Competitive Aortic Tissue Binding Assay
Aortic homogenate was prepared from the thoracic aortae of Han Wistar rats. Freshly isolated thoracic aortae were frozen, and later thawed and stripped of non-elastic material. […] Homogenate concentration was adjusted to 30 mg/mL in Puck's saline, and aliquots were stored at −80° C. until use. Positive and negative control compounds and test compounds were made up to 100 mM in DMSO, and added to 1 mL aliquots of aortic homogenate in Puck's saline for a final concentration of 100 μM. Homogenate samples were pre-incubated with test compounds at 37° C., rotating, overnight. [^14C]4-Amino-N-[(1S)-1-cyano-2-(4′-cyanobiphenyl-4-yl)ethyl]tetrahydro-2H-pyran-4-carboxamide was then added to all samples to a final concentration of 100 μM, and samples were incubated at 37° C., rotating, for a further 2 h. Protein was precipitated from each sample by the addition of 10 mL acetone, pre-chilled to −20° C. Samples were left overnight at −20° C. to allow complete precipitation. […] Precipitate was washed by resuspension in 10 mL 80% methanol in distilled water, and re-pelleted by centrifugation at 4,500× g at 4° C. for 20 min. […] After final wash, precipitate was air-dried, and dissolved overnight in 1 mL NCSII Tissue Solubiliser. 1 mL aliquots of supernatants were added to 5 mL Ultima Gold scintillation fluid (Perkin Elmer, MA, U.S.A.), and 1 mL solubilised pellets were added to 5 mL Hionic-Fluor scintillation fluid (Perkin Elmer, MA, U.S.A.). Radioactivity of samples was determined on a Beckman LS6500 multipurpose scintillation counter (Beckman Coulter, IN, U.S.A.). […] Duplicate samples were tested for each compound on each experimental occasion, and at least two experiments were run for each test compound. […] 1-way ANOVA and Bonferroni's multiple comparison tests were performed to calculate significance of differences from vehicle control.

[2] = Rat quantitative whole-body autoradiography (QWBA) studies, aortic retention; type: in vivo
[3] = molecular target: T1, recombinant human DPP1 (rhDPP1) (Homo sapiens (Human), UniProt P53634); assay: Test A2: Fluorescence assay for recombinant human (RH) DPP1; type: biochemical; conditions: Test A2 (Examples 36-37); 96.4 pM rhDPP1, 50 μM H-Gly-Arg-AMC, pH 5.0, rt
T1 sequence (P53634 231-394): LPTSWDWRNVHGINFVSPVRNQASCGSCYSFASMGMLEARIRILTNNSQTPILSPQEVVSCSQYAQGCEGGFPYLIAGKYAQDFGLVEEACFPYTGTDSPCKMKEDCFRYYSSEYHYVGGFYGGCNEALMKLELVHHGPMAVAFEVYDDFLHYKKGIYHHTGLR
T1 sequence (P53634 25-134): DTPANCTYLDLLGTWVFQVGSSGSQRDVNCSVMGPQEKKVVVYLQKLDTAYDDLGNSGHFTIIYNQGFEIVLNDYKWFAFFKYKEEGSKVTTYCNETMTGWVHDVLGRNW
T1 sequence (P53634 395-463): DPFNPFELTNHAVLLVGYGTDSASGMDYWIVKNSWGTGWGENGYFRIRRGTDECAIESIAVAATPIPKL
Experimental: Test A2: Fluorescence Assay for Recombinant Human (RH) DPP1
The activity of DPP1 was determined by measuring the enzymatic release of aminomethyl coumarin (AMC) from the peptide substrate (H-Gly-Arg-AMC), which leads to an increase in fluorescence intensity at λex=350 nm and λem=450 nm. The assay was carried out in black 384 well plates in a final volume of 10 μl at rt. The assay conditions contained the following: 25 mM piperazine buffer pH 5.0; 50 mM NaCl, 5 mM DTT; 0.005 (v/v) Triton X-100; 50 μM H-Gly-Arg-AMC and 96.4 pM rhDPP1 Potential inhibitors were diluted in DMSO to generate 100× of the final assay concentration. The compounds were tested at 10 concentrations with half-log dilution steps (highest concentration typically 1 μM) and with a final DMSO concentration of 1% (v/v). Routinely, inhibitors were pre-incubated with rhDPP1 for 30 min prior to the addition of the peptide substrate to start the reaction for a further 30 min. After incubation the plates were read in a fluorescence plate reader using the above emission and excitation wavelengths. The pIC50 were determined using a 4-paramater logistic equation in a non-linear curve fitting routine (Smartfit, Genedata Screener®). […]

[4] = molecular target: T1, recombinant human DPP1 (rhDPP1); assay: Test A1: Fluorescence assay for recombinant human (RH) DPP1; type: biochemical; conditions: Test A1 (Examples 1-35); rhDPP1 ~50 pM, 100 μM H-Gly-Arg-AMC, pH 5.0, 22° C.
Experimental: Test A1: Fluorescence Assay for Recombinant Human (RH) DPP1
The activity of DPP1 was determined by measuring the enzymatic release of aminomethyl coumarin (AMC) from the peptide substrate (H-Gly-Arg-AMC), which leads to an increase in fluorescence intensity at λex=350 nm and λem=450 nm. The assay was carried out in black 384 well plates in a final volume of 50 μl at 22° C. The assay conditions contained the following: 25 mM piperazine buffer pH 5.0; 50 mM NaCl, 5 mM DTT; 0.01% (v/v) Triton X-100; 100 μM H-Gly-Arg-AMC and rhDPP1 (˜50 pM). […] Routinely, inhibitors were pre-incubated with rhDPP1 for 30-60 min prior to the addition of the peptide substrate to start the reaction for a further 60 min at 22° C.

[5] = literature (Schmidt et al. 1984); cited from earlier work

Cn1c(=O)oc2ccc(-c3ccc(C[C@@H](C#N)NC(=O)[C@@H]4CNCCCO4)cc3)cc21 [Example 2, (2S)-N-{(1S)-1-Cyano-2-[4-(3-methyl-2-oxo-2,3-dihydro-1,3-benzoxazol-5-yl)phenyl]ethyl}-1,4-oxazepane-2-carboxamide]
Aortic Tissue Binding [1]: No binder

N#Cc1ccc(-c2ccc(C[C@@H](C#N)NC(=O)[C@@H]3CCCCN3)cc2)cc1 [WO2009/074829 (Example 24)]
Aortic Tissue Binding [1]: Binder

Cn1c(=O)oc2ccc(-c3ccc(C[C@@H](C#N)NC(=O)C4(N)CCOCC4)cc3)cc21 [WO2010/128324 (Example 17)]
Aortic Tissue Binding [1]: Strong binder

N#Cc1ccc(-c2ccc(C[C@@H](C#N)NC(=O)C3(N)CCOCC3)cc2)cc1 [WO2010/128324 (Ex. 3), 4-amino-N-[(1S)-1-cyano-2-(4′-cyanobiphenyl-4-yl)ethyl]tetrahydro-2H-pyran-4-carboxamide]
Aortic Tissue Binding [1]: Strong binder reference | aortic retention in rat QWBA studies [2]: high level of aortic retention

CC(C)C[C@@H](/C=C/C(=O)N1CCc2ccccc21)NC(=O)[C@@H]1CNCCCO1.O=C(O)C(F)(F)F [Example 37, (2S)-2-[(2E,4S)-1-(2,3-Dihydro-1H-indol-1-yl)-6-methyl-1-oxohept-2-en-4-yl]-1,4-oxazepane-2-carboxamide trifluoroactetate]
DPP1 activity, pIC50 [3]: 8.28

CC[C@@H](/C=C/C(=O)N1CCc2ccccc21)NC(=O)[C@@H]1CNCCCO1.O=C(O)C(F)(F)F [Example 36]
DPP1 activity, pIC50 [3]: 8.3

COCCn1c(=O)sc2ccc(-c3ccc(C[C@@H](C#N)NC(=O)[C@@H]4CNCCCO4)cc3)cc21 [Example 18, (2S)-N-[(1S)-1-Cyano-2-{4-[3-(2-methoxyethyl)-2-oxo-2,3-dihydro-1,3-benzothiazol-5-yl]phenyl}ethyl]-1,4-oxazepane-2-carboxamide]
DPP1 activity, pIC50 [4]: 8.5

Cn1c(=O)oc2c(F)cc(-c3ccc(C[C@@H](C#N)NC(=O)[C@@H]4CNCCCO4)cc3)cc21 [Example 15, (2S)-N-{(1S)-1-Cyano-2-[4-(7-fluoro-3-methyl-2-oxo-2,3-dihydro-1,3-benzoxazol-5-yl)phenyl]ethyl}-1,4-oxazepane-2-carboxamide]
DPP1 activity, pIC50 [4]: 8.29

CC(c1ccc(Cl)c(Cl)c1)N1N=C(N)CC1=O (stereo not drawn) [muzolimine]
retention in the aorta in QWBA studies [5]: retained selectively in the aorta

Cn1c(=O)oc2ccc(-c3ccc(C[C@@H](C#N)NC(=O)[C@@H]4CCCCN4)cc3)cc21 [WO2009/074829 (Example 96)]
Aortic Tissue Binding [1]: Medium binder

CN1C(=O)C(F)(F)c2ccc(-c3ccc(C[C@@H](C#N)NC(=O)[C@@H]4CNCCCO4)cc3)cc21 [Example 14, (2S)-N-{(1S)-1-Cyano-2-[4-(3,3-difluoro-1-methyl-2-oxo-2,3-dihydro-1H-indol-6-yl)phenyl]ethyl}-1,4-oxazepane-2-carboxamide]
DPP1 activity, pIC50 [4]: 7.78
